Reference: US20130224296A1, “Drug Formulations Using Water Soluble Antioxidants” (Bristol-Myers Squibb Company, priority 2010, published 2013)
Values after ≈ are worked out from the molar mass of the structure shown.

Key:
[1] = Level of formaldehyde and formic acid in antioxidant containing Opadry films (GC); format: physicochemical; details: Opadry II white film, sealed vials 60° C. for 5 days; 0.2% w/v BHT or 2% w/v ascorbic acid or propyl gallate in suspension
Method: Five hundred μL of the coating suspension was dispensed in 5 mL scintillation vials. Open vials were kept overnight at 40° C. to form a film. The vials were rubber stoppered and sealed. The sealed vials were kept at 60° C. for 5 days and analyzed for formaldehyde and formic acid levels by a GC method. […] These concentrations are on the higher end of the recommended use concentrations for each antioxidant and were used to test their maximum efficacy.

[2] = physchem; details: water

Compound | Level of formaldehyde [1] | Level of formic acid [1] [ppm] | solubility [2] [µg/mL]
Cc1cc(C(C)(C)C)c(O)c(C(C)(C)C)c1 [Butylated hydroxy toluene (BHT), Butylated hydroxy toluene] | 95 ppm | 1159 | 0.6 to 1.1 (≈ 0.00272 to 0.00499 mM)
O=C1O[C@H]([C@@H](O)CO)C(O)=C1O [Ascorbic acid] | Not detected | 184 | 
CCCOC(=O)c1cc(O)c(O)c(O)c1 [Propyl gallate] | Not detected | 60 | 3330 (≈ 15.7 mM)
